Reference: paper PMC7600679, “Benzoxazole-Based Metal Complexes to Reverse Multidrug Resistance in Bacteria” (Antibiotics, 2020)
Where two headings read alike, the source gives them in different places.

Assays:
[1] = test system: C. violaceum 026 sensor strain with AHL producer E. cloacae 31298; test: Quorum sensing inhibition (agar diffusion, violacein production); format: cell-based, Chromobacterium violaceum; settings: disc with 10 μL of 1 mM stock; reduction of violacein zone
Procedure: (§1) The following bacterial strains were applied in the QS tests: C. violaceum 026 as sensor strain and E. cloacae 31298 isolated from clinical wound (used as N-acyl-homoserine lactone (AHL) producer); this strain induced pigment production by C. violaceum and is a model strain to study QS interactions.
LB* was applied for these experiments. The sensor strain C. violaceum 026 and the AHL producer strains E. cloacae 31298 were inoculated as parallel lines and incubated at room temperature for 24–48 h. The inhibition of bacterial communication was determined by the agar diffusion method. Filter paper discs (7.0 mm in diameter) were impregnated with 10 μL of stock solutions (1 mM) of the compounds in DMSO. The discs were placed between the parallel lines of the sensor and the AHL producer strains. The plates were kept at room temperature for another 24–48 h, and the interactions between the strains and compounds were determined as the reduction in the size of the zone of purple pigment (violacein) production in millimeters. PMZ was applied as a positive control.

[2] = test system: Staphylococcus aureus ATCC 25923; test: Minimum inhibitory concentration (broth microdilution, CLSI); format: cell-based; settings: S. aureus ATCC 25923; 18 h, visual inspection
Procedure: (§2) The compounds were further investigated against two Gram-positive strains, S. aureus ATCC 25923 (MSSA), used as the methicillin susceptible reference strain, and the methicillin- and ofloxacin-resistant S. aureus 272123 clinical isolate (MRSA), which was given by Prof. Dr. Leonard Amaral (Institute of Hygiene and Tropical Medicine, Lisbon, Portugal).
(§3) The minimum inhibitory concentrations (MICs) of compounds were determined in 96-well plates based on the Clinical and Laboratory Standard Institute guidelines (CLSI guidelines). The compounds were diluted in 100 μL of MHB. Then, 10^−4 dilution of an overnight bacterial culture in 100 μL of medium were added to each well, with the exception of the medium control wells.

[3] = test system: S. aureus 272123 (MRSA); test: as above; format: cell-based, Staphylococcus aureus; settings: 18 h, visual inspection
Procedure: as §2, §3

[4] = test system: E. coli AG100; test: as above; format: cell-based, Escherichia coli; settings: E. coli AG100; 18 h, visual inspection; read-out: MIC
Procedure: The strains were donated by Prof. Dr. Hiroshi Nikaido (Department of Molecular and Cell Biology and Chemistry, University of California, Berkeley, CA, USA).
as §3

[5] = test system: E. coli AG100 A; test: as above; format: cell-based, Escherichia coli; settings: E. coli AG100 A (AcrAB-TolC deleted); 18 h, visual inspection
Procedure: Wild-type E. coli K-12 AG100 strain (argE3 thi-1 rpsL xyl mtl Δ(gal-uvrB) supE44) expressing the AcrAB TolC EP at its basal level and its AcrAB-TolC deleted mutant E. coli K-12 AG100 A strain. The strains were donated by Prof. Dr. Hiroshi Nikaido (Department of Molecular and Cell Biology and Chemistry, University of California, Berkeley, CA, USA).
as §3

[6] = test system: Chromobacterium violaceum 026; test: as above; format: cell-based; settings: C. violaceum 026
Procedure: as §1, §3

[7] = test system: Enterobacter cloacae 31298; test: as above; format: cell-based; settings: E. cloacae 31298
Procedure: as §1, §3

[8] = test system: S. aureus 272123 (MRSA); test: Real-time ethidium bromide accumulation (efflux pump inhibition); format: cell-based, Staphylococcus aureus; settings: compounds at ¼ MIC (3 at 12.5 µM), VER at 25 µM, EB 1 μg/mL, minute 30
Procedure: (§4) Since multidrug resistance EPs are very important factors contributing to multidrug resistance (MDR) in both Gram-positive and Gram-negative bacteria, the inhibition of these pumps could reverse the resistant phenotype and restore the activity of antibiotics. The effect of compounds on ethidium bromide (EB) accumulation was determined by the automated EB method. This assay was used to determine how much of the fluorescent dye and pump substrate EB was accumulated by the bacterial cells in the presence of the tested compounds. The real-time accumulation of EB was monitored for 30 min in both S. aureus and E. coli strains.
(§5) The accumulation of the efflux pump substrate EB was monitored by the automated EB method using a LightCycler real-time thermocycler (LightCycler 1.5, Roche, Indianapolis, IN, USA). An aliquot of an overnight culture of the S. aureus strains in TSB medium was inoculated into fresh TSB medium, and it was incubated until it reached an optical density (OD) of 0.6 at 600 nm. In the case of E. coli strains, the medium applied in the assay was LB broth; the preparation of the inoculum was similar to the one of S. aureus. The cells were washed with phosphate buffered saline (PBS; pH 7.4) and centrifuged at 13,000 × g for 3 min, the pellets were re-suspended in PBS (pH 7.4), and the OD was calibrated to 0.6 at 600 nm. The compounds were measured at ¼ MIC concentration (in double-concentrated form) to the EB solution in PBS. The final concentration of EB was determined according to the MIC and the fluorescent signal produced by this amount of EB. In the case of all strains, the concentration of EB was 1 μg/mL. Then, 10 μL of the EB solution plus the compound were pipetted into standard glass capillary tubes of 20 µL maximum volume (Roche, Indianapolis, USA), and 10 μL of bacterial culture (OD of 0.6 at 600 nm) were transferred to the capillaries. The capillaries containing the samples were placed into the carousel, and the fluorescence was monitored at the FL-2 channel in every minute on a real-time basis.
(§6) Based on the data obtained, the relative fluorescence index (RFI) of the last time point (minute 30) was determined as follows:RFI = (RFtreated − RFuntreated)/RFuntreated(1) where RFtreated is the relative fluorescence (RF) at the last time point of the EB retention curve in the presence of an inhibitor, and RFuntreated is the relative fluorescence at the last time point of the EB retention curve of the untreated control having the solvent control (DMSO).

[9] = test system: S. aureus ATCC 25923; test: as above; format: cell-based, Staphylococcus aureus; settings: compounds at ¼ MIC, EB 1 μg/mL, minute 30
Procedure: as §4, §5, §6

[10] = test system: E. coli AG100; test: Real-time ethidium bromide accumulation (efflux pump inhibition, AcrAB-TolC); format: cell-based, Escherichia coli; settings: compounds at ¼ MIC, EB 1 μg/mL, minute 30
Procedure: as §4, §5, §6

[11] = test system: E. coli AG100 A; test: Real-time ethidium bromide accumulation (efflux pump inhibition); format: cell-based, Escherichia coli; settings: compounds at ¼ MIC, EB 1 μg/mL, minute 30
Procedure: as §4, §5, §6

[12] = test system: MRC-5 human embryonal lung fibroblast cell line; test: Cytotoxicity assay (MTT); format: cell-based; settings: 24 h
Procedure: The MRC-5 human embryonic lung fibroblast cell line (ATCC CCL-171; provider: LGC Promochem, Teddington, UK) was used in the experiments. The cells were cultivated in Eagle’s Minimal Essential Medium (EMEM; Sigma–Aldrich, St. Louis, MO, USA), supplemented with 1% non-essential amino acid mixture, 10% heat-inactivated fetal bovine serum, 2 mM L-glutamine, 1 mM Na-pyruvate, nystatin, and a penicillin–streptomycin mixture in concentrations of 100 U/L and 10 mg/L, respectively. The supplementary components were obtained from Sigma–Aldrich, St. Louis, MO, USA. The cell culture was kept in a humidified atmosphere (5% CO2, 95% air) at 37 °C.
The activity of increasing concentrations of the compounds on cell growth was determined in 96-well flat-bottomed microtiter plates by two-fold serial dilutions of the benzoxazole derivatives. The adherent human embryonic lung fibroblast cells (10^4/well) was seeded in EMEM medium in 96-well microtiter plates for 4 h prior to the assay. The serial dilutions of the compounds were made in a separate plate, and then pipetted to the plates containing the MRC-5 cell line. Culture plates were incubated at 37 °C for 24 h; at the end of the incubation period, 20 μL of MTT (3-(4,5-dimethylthiazol-2-yl)-2,5-diphenyltetrazolium bromide) solution (from a 5 mg/mL stock solution) was measured to each well. After the incubation at 37 °C for 4 h, 100 μL of sodium dodecyl sulfate (SDS) solution (10% SDS in 0.01 M HCl) was added to each well to dissolve the formazan crystals and the samples were further incubated at 37 °C overnight. Cell growth was calculated by measuring the OD at 540 nm (ref. 630 nm) with a Multiscan EX ELISA reader. The cytotoxicity was expressed as IC50 values, defined as the inhibitory dose that reduces the growth of the cells exposed to the tested compounds by 50%.

[13] = test system: S. aureus MRSA 272123; test: Resistance modulation (MIC reduction) assay with CIP and TET; format: cell-based, Staphylococcus aureus
Procedure: (§7) The resistance modulation effects of compounds with ciprofloxacin (CIP) and tetracycline (TET) antibiotics were evaluated by the MIC reduction method on the Gram-negative E. coli AG100, AG100 A, and the Gram-positive S. aureus ATCC and MRSA strains.
(§8) The chemosensitizing activity of benzoxazole-type ligands and their metal complexes was determined based on the MIC values of the antibiotics in the presence of sub-inhibitory concentrations of the compounds (¼ MIC) in both Gram-negative and Gram-positive strains. The MICs were determined in strains by the two-fold broth microdilution method in 96-well plates, using serial dilutions of TET and CIP. The first four rows contained two-fold dilutions of antibiotics, and combinations of the TET and CIP and tested compounds were transferred into the last four rows. The 10^−4 dilution of an overnight bacterial culture in 50 μL of MHB was then measured to each well, except for the medium control wells. The plates were kept at 37 °C for 18 h. MIC values of antibiotics and their combination with tested compounds were detected by visual inspection.

[14] = test system: E. coli AG100; test: as above; format: cell-based, Escherichia coli; settings: compound at ¼ MIC
Procedure: as §7, §8

[15] = test system: MRC-5 human embryonal lung fibroblast cell line; parameters: method as in earlier work; settings: cited from earlier work
[16] = test system: MDR mouse T-cell lymphoma cells; parameters: method as in PMID 30396935; settings: preliminary results; cited from earlier work

| SMILES | Inhibition zone (quorum sensing) [1] [mm] | MIC [2] [µM] | MIC [3] [µM] | MIC [4] [µM] | MIC [5] [µM] | MIC [6] [µM] | MIC [7] [µM] | Relative fluorescence index (RFI) [8] | Relative fluorescence index (RFI) [9] | Relative fluorescence index (RFI) [10] | Relative fluorescence index (RFI) [11] | Cytotoxic effect (class in words) [12] | IC50 [12] [µM] | Reduction of the MIC value of CIP ([13]; compound at a quarter of the MIC) [fold] | CIP MIC in combination with compounds ([13]; compound at ¼ MIC, value is the MIC of ciprofloxacin) [µM] | Reduction of the MIC of CIP [14] [fold] | CIP MIC in combination with compounds ([14]; value is the MIC of ciprofloxacin) [µM] | IC50 [15] [µM] | IC50 [16] [µM] |
| --- | --- | --- | --- | --- | --- | --- | --- | --- | --- | --- | --- | --- | --- | --- | --- | --- | --- | --- | --- |
| CC(CN1c2ccccc2Sc2ccccc21)N(C)C (centres unmarked) [PMZ, promethazine, reference compound] | 16 |  |  |  |  |  |  |  |  |  |  |  |  |  |  |  |  |  |  |
| [O-]C(=Cc1nc2ccccc2o1)C(F)(F)F.[O-]C(=Cc1nc2ccccc2o1)C(F)(F)F.[Zn+2] [Compound 4] | 47 | 12.5 | 6.25 | 25 | 25 | >100 | >100 | −0.11 | −0.03 | −0.10 | −0.17 | strong (IC50: 0–30) | 17.5 |  |  |  |  |  |  |
| [Ag+].[Ag+].[O-]C(=Cc1nc2ccccc2o1)C(F)(F)F.[O-]C(=Cc1nc2ccccc2o1)C(F)(F)F [Compound 11] | 53 | 25 | 12.5 | 25 | 50 | >100 | >100 | −0.11 | 0.11 | 0.37 | 0.12 |  | 65.9 |  |  |  |  |  |  |
| O.O.[Ni+2].[O-]C(=Cc1nc2ccccc2o1)C(F)(F)F.[O-]C(=Cc1nc2ccccc2o1)C(F)(F)F [Compound 8] |  | 25 | 6.25 | 50 | 25 | >100 | >100 | −0.01 | −0.20 | 0.11 | −0.15 | strong (IC50: 0–30) | 12.2 | 2 | 6.25 | 2 | 0.008 |  |  |
| N.N.[Cl][Pt][Cl] [cisplatin] |  |  |  |  |  |  |  |  |  |  |  |  |  |  |  |  |  | 33.5 | 11.2 |
